Drawing on patent publication US11492335B2, “Aryl or heteroaryl triazolone derivatives or salts thereof, or pharmaceutical compositions comprising the same” (YUHAN CORPORATION, priority 2018, dated 2022), this text covers IC50 for ten molecules.

SMILES strings stand for the structures. Counter-ions that a name gives are not always drawn. Like-named read-outs stand apart in the source and are kept apart here. Where only a bound is given, the exact number is not on record here.

Holding throughout (format): biochemical
Test [1] deals with T1, recombinant human DAO (diamine oxidase) (Homo sapiens, UniProt P19801).
T1 construct: purchased R&D systems
T1 sequence (P19801 20-751): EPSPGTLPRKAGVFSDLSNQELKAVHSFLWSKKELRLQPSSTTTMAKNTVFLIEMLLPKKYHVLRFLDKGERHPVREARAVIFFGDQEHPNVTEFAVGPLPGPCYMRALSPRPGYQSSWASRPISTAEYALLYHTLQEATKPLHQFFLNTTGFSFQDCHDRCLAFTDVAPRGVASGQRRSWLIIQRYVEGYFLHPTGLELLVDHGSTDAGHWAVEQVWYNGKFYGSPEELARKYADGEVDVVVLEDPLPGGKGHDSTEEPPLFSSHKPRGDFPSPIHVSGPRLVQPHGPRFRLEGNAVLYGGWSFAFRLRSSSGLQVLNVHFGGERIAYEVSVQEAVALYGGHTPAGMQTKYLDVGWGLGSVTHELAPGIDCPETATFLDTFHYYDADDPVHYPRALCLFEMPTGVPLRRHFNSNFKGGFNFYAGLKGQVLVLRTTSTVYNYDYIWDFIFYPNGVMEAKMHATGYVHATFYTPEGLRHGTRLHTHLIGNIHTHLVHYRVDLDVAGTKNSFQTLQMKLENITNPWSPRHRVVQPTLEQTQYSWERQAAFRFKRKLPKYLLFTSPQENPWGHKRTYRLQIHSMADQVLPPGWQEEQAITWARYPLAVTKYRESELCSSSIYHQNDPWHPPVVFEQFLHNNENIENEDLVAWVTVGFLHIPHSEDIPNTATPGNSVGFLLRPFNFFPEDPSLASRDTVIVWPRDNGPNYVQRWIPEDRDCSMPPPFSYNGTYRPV
The test is described as follows: Activity on recombinant human DAO, Amplex Red method, 1 mM putrescine substrate. The following applies: recombinant human DAO, read-out: Inhibitory Activity (IC50, nM) DAO. The procedure, abridged: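 Inhibition of recombinant human DAO (diamine oxidase, R&D systems) was assessed with the Amplex Red Hydrogen Peroxide Assay Kit. Hydrogen peroxide produced from 1 mM putrescine was detected through an HRP-coupled reaction that converts Amplex Red into fluorescent resorufin, read at 544 nm excitation and 590 nm emission. IC50 values came from four-parameter logistic fits in GraphPad Prism.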

The target in test [2] is T2, recombinant human MAO-A (monoamine oxidase-A) (Homo sapiens, UniProt P21397).
T2 construct: purchased Sigma-Aldrich
T2 sequence (P21397 1-527): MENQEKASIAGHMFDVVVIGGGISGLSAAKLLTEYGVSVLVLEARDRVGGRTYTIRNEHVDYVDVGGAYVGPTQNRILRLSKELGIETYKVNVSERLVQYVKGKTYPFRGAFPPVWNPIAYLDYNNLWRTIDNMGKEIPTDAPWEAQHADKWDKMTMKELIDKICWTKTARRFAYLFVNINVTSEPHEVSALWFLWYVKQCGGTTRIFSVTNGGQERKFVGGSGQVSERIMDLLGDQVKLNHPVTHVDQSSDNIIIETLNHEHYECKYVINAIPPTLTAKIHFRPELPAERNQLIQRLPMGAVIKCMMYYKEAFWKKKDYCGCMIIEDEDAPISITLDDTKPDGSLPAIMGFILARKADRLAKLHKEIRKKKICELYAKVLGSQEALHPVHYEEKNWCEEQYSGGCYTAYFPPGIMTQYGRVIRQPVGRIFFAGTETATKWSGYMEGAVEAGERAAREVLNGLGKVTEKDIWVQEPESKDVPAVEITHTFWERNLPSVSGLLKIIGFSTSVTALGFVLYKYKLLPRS
Kind of test: Activity on recombinant human MAO-A, Amplex Red method, 0.5 mM tyramine substrate. To be noted: read-out: Inhibitory Activity (IC50, nM) MAO-A. The procedure, abridged:
(§1)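 Amplex Red/HRP coupled read-out of H2O2 with 0.5 mM tyramine for MAO-A or 1 mM benzylamine for MAO-B, following a 30-min compound–enzyme preincubation at 37° C. IC50 from percent inhibition of signal rate relative to uninhibited control.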

Test [3] addresses T3, recombinant human MAO-B (monoamine oxidase-B) (Homo sapiens, UniProt P27338).
T3 construct: purchased Sigma-Aldrich
T3 sequence (P27338 1-520): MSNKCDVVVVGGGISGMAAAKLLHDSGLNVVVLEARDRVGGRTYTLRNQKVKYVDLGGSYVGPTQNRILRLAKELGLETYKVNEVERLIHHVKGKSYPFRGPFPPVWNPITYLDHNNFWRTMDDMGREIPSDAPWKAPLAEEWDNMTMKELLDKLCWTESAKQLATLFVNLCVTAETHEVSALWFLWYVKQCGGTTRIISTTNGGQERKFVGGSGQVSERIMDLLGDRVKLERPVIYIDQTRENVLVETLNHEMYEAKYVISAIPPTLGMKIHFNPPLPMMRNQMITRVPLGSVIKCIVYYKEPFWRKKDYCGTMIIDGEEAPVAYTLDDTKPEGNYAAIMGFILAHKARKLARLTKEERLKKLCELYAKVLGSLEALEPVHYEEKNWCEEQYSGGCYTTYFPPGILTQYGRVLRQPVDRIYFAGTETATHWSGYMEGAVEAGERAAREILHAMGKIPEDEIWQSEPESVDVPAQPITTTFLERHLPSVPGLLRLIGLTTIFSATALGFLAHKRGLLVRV
Kind of test: Activity on recombinant human MAO-B, Amplex Red method, 1 mM benzylamine substrate. To be noted: read-out: Inhibitory Activity (IC50, nM) MAO-B. The essentials: as §1

The next test has as its target T4, recombinant human VAP-1 (Homo sapiens, UniProt Q16853).
T4 construct: purchased R&D systems
T4 sequence (Q16853 1-763): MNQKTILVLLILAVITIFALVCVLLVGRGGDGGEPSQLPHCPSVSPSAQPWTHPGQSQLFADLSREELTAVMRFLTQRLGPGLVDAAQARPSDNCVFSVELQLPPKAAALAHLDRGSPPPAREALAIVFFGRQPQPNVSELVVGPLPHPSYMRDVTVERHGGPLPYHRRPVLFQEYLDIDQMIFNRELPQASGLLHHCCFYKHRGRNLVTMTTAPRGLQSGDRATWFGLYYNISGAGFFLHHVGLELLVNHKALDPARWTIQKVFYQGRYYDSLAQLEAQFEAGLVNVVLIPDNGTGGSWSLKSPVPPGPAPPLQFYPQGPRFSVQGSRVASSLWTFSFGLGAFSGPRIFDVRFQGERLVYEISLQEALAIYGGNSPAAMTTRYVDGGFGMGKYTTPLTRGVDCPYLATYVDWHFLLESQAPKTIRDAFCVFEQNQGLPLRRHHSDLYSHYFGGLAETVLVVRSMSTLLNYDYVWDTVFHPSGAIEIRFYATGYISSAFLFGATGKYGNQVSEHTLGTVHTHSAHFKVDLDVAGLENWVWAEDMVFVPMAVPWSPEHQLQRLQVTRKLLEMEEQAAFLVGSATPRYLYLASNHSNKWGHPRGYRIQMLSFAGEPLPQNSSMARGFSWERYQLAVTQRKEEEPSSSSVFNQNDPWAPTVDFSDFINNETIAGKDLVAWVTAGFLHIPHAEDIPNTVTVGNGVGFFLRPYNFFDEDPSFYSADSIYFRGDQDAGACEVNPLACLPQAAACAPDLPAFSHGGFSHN
Kind of test: Activity on recombinant human VAP-1, Amplex Red HRP-coupled hydrogen peroxide assay, benzylamine substrate. To be noted: recombinant human VAP-1, benzylamine substrate, read-out: Inhibitory Activity (IC50, nM) human VAP-1. The procedure, abridged: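 Dose-response IC50 determined from reduction in resorufin signal rate (544/590 nm, 1-2 h), with 30 min compound preincubation at 37 °C and 1 mM benzylamine as substrate.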

Where [4] appears, read: 1 mM putrescine, * = between 10 and 100 nM, ** = between 300 and 1000 nM.

Consider `COc1ncc(-c2cccc(-n3cnn(C/C(=C/F)CN)c3=O)c2)cc1C(F)(F)F` [Example 87, 2-[(2E)-2-(aminomethyl)-3-fluoroprop-2-en-1-yl]-4-{3-[6-methoxy-5-(trifluoromethyl)pyridin-3-yl]phenyl}-2,4-dihydro-3H-1,2,4-triazol-3-one hydrochloride], for which the IC50 (as a rule, the concentration that inhibits the measured activity by half) was under 100 nM in test [1] (setting [4]), over 100000 nM in test [2] (0.5 mM tyramine), 22 nM in test [3] (1 mM benzylamine) and 1 nM at recombinant human VAP-1 (30 min preincubation at 37° C.).

As for `NC/C(=C\F)Cn1ncn(-c2cccc(-c3c[nH]c4ccccc34)c2)c1=O` [Example 100, 2-[(2E)-2-(aminomethyl)-3-fluoroprop-2-en-1-yl]-4-[3-(1H-indol-3-yl)phenyl]-2,4-dihydro-3H-1,2,4-triazol-3-one hydrochloride], the IC50 in test [1] (setting [4]) stood at 27 nM; in test [2] (0.5 mM tyramine), 39300 nM; in test [3] (1 mM benzylamine) it was 162 nM; on recombinant human VAP-1 (30 min preincubation at 37° C.), 0.92 nM.

In the case of `CC(=O)Nc1ccc(-c2ccnc(-n3cnn(C/C(=C/F)CN)c3=O)c2)cc1` [Example 166, N-[4-(2-{1-[(2E)-2-(aminomethyl)-3-fluoroprop-2-en-1-yl]-5-oxo-1,5-dihydro-4H-1,2,4-triazol-4-yl}pyridin-4-yl)phenyl]acetamide], the IC50 in test [1] (1 mM putrescine substrate) is under 30 nM; in test [2] (0.5 mM tyramine substrate), 20700 nM; in test [3] (1 mM benzylamine substrate) it was 2420 nM; at recombinant human VAP-1, 0.23 nM.

With `NC/C(=C\F)Cn1ncn(-c2cccc(-c3cnc(O)c(C(F)(F)F)c3)c2)c1=O` [Example 88, 2-[(2E)-2-(aminomethyl)-3-fluoroprop-2-en-1-yl]-4-{3-[6-hydroxy-5-(trifluoromethyl)pyridin-3-yl]phenyl}-2,4-dihydro-3H-1,2,4-triazol-3-one hydrochloride], the IC50 was under 10 nM in test [1] (setting [4]), over 100000 nM in test [2] (0.5 mM tyramine), 9600 nM in test [3] (1 mM benzylamine) and 1.1 nM on recombinant human VAP-1 (30 min preincubation at 37° C.).

`NC/C(=C\F)Cn1ncn(-c2ccc(Br)cn2)c1=O` [Example 30, 2-[(2E)-2-(aminomethyl)-3-fluoroprop-2-en-1-yl]-4-(5-bromopyridin-2-yl)-2,4-dihydro-3H-1,2,4-triazol-3-one hydrochloride]: the half-maximal inhibitory concentration (IC50) in test [1] (setting [4]) was 13 nM; in test [2] (0.5 mM tyramine) it was 1900 nM; in test [3] (1 mM benzylamine) it was 1700 nM; on recombinant human VAP-1 (30 min preincubation at 37° C.), 0.61 nM.

Turning to `Cc1cc(-c2cccc(-n3cnn(C/C(=C/F)CN)c3=O)c2)cc2c1NC(=O)CC2` [Example 102, 6-(3-{1-[(2E)-2-(aminomethyl)-3-fluoroprop-2-en-1-yl]-5-oxo-1,5-dihydro-4H-1,2,4-triazol-4-yl}phenyl)-8-methyl-3,4-dihydroquinolin-2(1H)-one hydrochloride], the IC50 is 28 nM in test [1] (setting [4]), over 100000 nM in test [2] (0.5 mM tyramine), over 10000 nM in test [3] (1 mM benzylamine) and 0.2 nM on recombinant human VAP-1 (30 min preincubation at 37° C.).

As to `Cc1cc(-c2ccc3c(c2)NC(=O)C3)cnc1-n1cnn(C/C(=C/F)CN)c1=O` [Example 151, 6-(6-{1-[(2E)-2-(aminomethyl)-3-fluoroprop-2-en-1-yl]-5-oxo-1,5-dihydro-4H-1,2,4-triazol-4-yl}-5-methylpyridin-3-yl)-1,3-dihydro-2H-indol-2-one], the IC50 in test [1] (1 mM putrescine substrate) was 98 nM; in test [2] (0.5 mM tyramine substrate) it was over 10000 nM; in test [3] (1 mM benzylamine substrate) it was over 10000 nM; at recombinant human VAP-1, 0.52 nM.

Turning to `NC/C(=C\F)Cn1ncn(-c2cnc(-c3ccc4sc(N)nc4c3)cn2)c1=O` [Example 224, 4-[5-(2-amino-1,3-benzothiazol-5-yl)pyrazin-2-yl]-2-[(2E)-2-(aminomethyl)-3-fluoroprop-2-en-1-yl]-2,4-dihydro-3H-1,2,4-triazol-3-one], the IC50 in test [1] (1 mM putrescine substrate) was under 100 nM; in test [2] (0.5 mM tyramine substrate), over 100000 nM; in test [3] (1 mM benzylamine substrate), 49 nM; on recombinant human VAP-1 it was 1.3 nM.

Regarding `NC/C(=C\F)Cn1ncn(-c2ccnc(-c3ccc4c(c3)OCO4)c2)c1=O` [Example 209, 2-[(2E)-2-(aminomethyl)-3-fluoroprop-2-en-1-yl]-4-[2-(1,3-benzodioxol-5-yl)pyridin-4-yl]-2,4-dihydro-3H-1,2,4-triazol-3-one hydrochloride], the IC50 is under 10 nM in test [1] (1 mM putrescine substrate), over 100000 nM in test [2] (0.5 mM tyramine substrate), 17 nM in test [3] (1 mM benzylamine substrate) and 0.63 nM at recombinant human VAP-1.

As for `NC/C(=C\F)Cn1ncn(-c2cccc(C#Cc3cnc4c(c3)OCCN4)n2)c1=O` [Example 252, 2-[(E)-2-(aminomethyl)-3-fluoro-allyl]-4-[6-[2-(3,4-dihydro-2H-pyrido[3,2-b][1,4]oxazin-7-yl)ethynyl]-2-pyridyl]-1,2,4-triazol-3-one], the IC50 in test [1] (1 mM putrescine substrate) was 53 nM; in test [2] (0.5 mM tyramine substrate), over 100000 nM; in test [3] (1 mM benzylamine substrate), over 10000 nM; at recombinant human VAP-1, 0.6 nM.
